In assay [1] the target is T1, Serine protease 1 (Homo sapiens, UniProt P07477). Put plainly: Percent increase in the activity of trypsin by the compound at concentration between 20 mM and 40 mM.
The target of assay [2] is Plasminogen (Homo sapiens, UniProt P00747). Put plainly: Compound was tested for inhibition of plasmin.
The target in assay [3] is Prothrombin (Homo sapiens, UniProt P00734). Put plainly: Compound was tested for inhibition of thrombin.
Assay [4] addresses T1, Serine protease 1. Put plainly: Compound was tested for inhibition of trypsin.

T1 sequence (P07477 whole entry): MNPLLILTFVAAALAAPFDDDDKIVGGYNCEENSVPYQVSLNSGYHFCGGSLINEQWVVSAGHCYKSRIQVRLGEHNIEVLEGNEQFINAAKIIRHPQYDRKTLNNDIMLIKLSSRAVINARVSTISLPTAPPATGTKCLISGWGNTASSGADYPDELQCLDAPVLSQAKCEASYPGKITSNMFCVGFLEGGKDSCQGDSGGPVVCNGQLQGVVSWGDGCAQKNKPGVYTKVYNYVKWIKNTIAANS
Sequence of Plasminogen (P00747 97-580 limits assumed): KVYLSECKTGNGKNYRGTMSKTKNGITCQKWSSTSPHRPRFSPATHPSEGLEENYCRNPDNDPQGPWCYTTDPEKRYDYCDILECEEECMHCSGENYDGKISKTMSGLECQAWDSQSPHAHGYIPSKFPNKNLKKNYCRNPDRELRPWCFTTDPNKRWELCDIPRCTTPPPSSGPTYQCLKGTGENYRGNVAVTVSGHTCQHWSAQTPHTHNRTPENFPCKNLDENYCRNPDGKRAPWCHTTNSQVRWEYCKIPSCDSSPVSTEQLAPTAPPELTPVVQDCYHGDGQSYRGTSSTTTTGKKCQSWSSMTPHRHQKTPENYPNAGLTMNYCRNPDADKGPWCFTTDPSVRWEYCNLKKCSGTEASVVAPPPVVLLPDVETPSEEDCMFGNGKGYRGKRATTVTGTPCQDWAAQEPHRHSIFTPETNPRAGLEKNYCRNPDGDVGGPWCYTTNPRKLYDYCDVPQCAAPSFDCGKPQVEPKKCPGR
Sequence of Plasminogen (P00747 581-810 limits assumed): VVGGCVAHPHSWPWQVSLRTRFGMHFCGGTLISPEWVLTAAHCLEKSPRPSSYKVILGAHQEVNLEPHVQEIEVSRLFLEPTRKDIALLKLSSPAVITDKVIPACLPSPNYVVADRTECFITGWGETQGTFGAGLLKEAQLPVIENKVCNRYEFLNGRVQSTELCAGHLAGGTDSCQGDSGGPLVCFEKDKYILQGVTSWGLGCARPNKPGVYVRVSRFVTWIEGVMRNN

Molecule `CCC(C)C(NC(=O)CCc1ccc(O)cc1)C(=O)N1CCN(CCOC(=O)C2CCCN2)CC1` (stereo not given) gave an Increase in assay [1] of 70%.

Broadly, the IC50 is the midpoint of a concentration-inhibition curve. `CC[C@H](C)[C@H](NC(=O)C(O)Cc1ccc(O)cc1)C(=O)N1C2CC(OS(=O)(=O)O)CCC2C[C@H]1C(=O)NCCCCN=C(N)N` (stereo not given in full): the IC50 in assay [2] is 10700 nM; in assay [3] it was 15300 nM; in assay [4], 916 nM.

Consider `CC[C@H](C)[C@H](NC(=O)C(O)Cc1ccc(O)c(Cl)c1)C(=O)N1C2CC(OS(=O)(=O)O)CCC2C[C@H]1C(=O)NCCCCN=C(N)N` (stereo not given in full), for which the figures for the IC50 in assay [2], in assay [3] and in assay [4] were 8710 nM, 10200 nM and 871 nM, respectively.

Consider `N=C(N)N1CCC[C@H](NC(=O)C2CC3CCC(O)CC3N2C(=O)[C@@H](Cc2ccc(O)cc2)NC(=O)[C@H](O)Cc2ccc(OS(=O)(=O)O)cc2)C1O` (stereo not given in full), for which the values for the IC50 in assay [2], in assay [3] and in assay [4] were 409 nM, 54.6 nM and 273 nM, respectively.
